Assay results as given in publication PMC3003687, “α-Galactosylceramide Analogs with Weak Agonist Activity for Human iNKT Cells Define New Candidate Anti-Inflammatory Agents” (PLoS ONE, 2010).

How the values were obtained:
[1] = tested on: iNKT cells in PBMCs from healthy donors; experiment: Ex vivo staining of PBMCs from healthy donors with analog-loaded hCD1d tetramers; format: cell-based, human
Text: Our panel of clones might be limited to iNKT cells able to expand upon PHA stimulation and might be representative of a fraction only of the iNKT cell repertoire. […] The frequencies of iNKT cells measured using tetramers loaded with N-aromatic branched analogs were lower in some or all PBMCs tested. A lower detection might be explained by weaker efficiency of staining, since lower MFI values were also seen with iNKT cell clones stained with tetramers loaded with these glycolipids.
Figure 4 Ex vivo analysis of PBMC with CD1d tetramers loaded with αGalCer analogs. (A) Flow cytometric analyses were performed after labeling of PBMCs from healthy donors with hCD1d tetramers loaded with each of the indicated glycolipids. Representative dot plots generated with PBMCs from one normal donor, with the analog tested indicated at the top of each plot and the percentages of tetramer^+ CD3^+ cells indicated in the top right quadrants. The dot plots show events gating as live lymphocytes (PI negative and FSC/SSC gated lymphocytes). (B) Comparison of tetramer^+ cell frequencies in PBMC from three different donors. The frequencies of cells specifically stained with hCD1d tetramers loaded with the indicated glycolipids (or vehicle (Veh) only (i.e., DMSO)) are shown as the percentage of total iNKT cells (i.e., cells staining with mAb 6B11^+, specific for the invariant TCRα chain of iNKT cells). Similar results were obtained for three additional PBMC donors (not shown). TEXT PRINTED IN THE PICTURE: (A) Vehicle: 0.03 | (A) KRN7000: 0.56 | (A) C20:2: 0.52 | (A) C20:4: 0.58 | (A) Tol: 0.16 | (A) DFB: 0.56 | (A) BB: 0.29 | (A) AD: 0.49 DOUBTS OF THE COPYIST ABOUT THIS PICTURE: Panel A: the numbers in the upper right quadrants are printed without a measure or unit; only the axes (hCD1d tetramer / CD3) are printed

[2] = tested on: human iNKT cells and NK cells; experiment: In vitro transactivation assay (CFSE-labeled iNKT cells co-cultured with PBMC); format: cell-based; details: for IL-12 levels in supernatants / IL-13 levels in supernatants / IL-18 levels in supernatants / global IFNγ production in supernatants: 24 h, ELISA
Method: iNKT cells were stained for 5 minutes with 1–20 µM of CFSE (Molecular probes) and 5% FCS in PBS and washed twice. As a positive control, a fraction of CFSE-labeled iNKT cells were preactivated for 30 minutes with 1 µg/mL of PMA and 250 ng/mL of Ionomycin (Sigma-Aldrich) in culture medium and extensively washed. The experiment was initiated by adding CFSE-labeled unstimulated or PMA/Ionomycin-preactivated iNKT cells to freshly prepared PBMC pulsed with vehicle or αGalCer analogs at the indicated concentrations and at an iNKT/PBMC ratio of 1/10 or 1/40. Supernatants and cells were harvested from parallel conditions after the indicated time of co-culture. For intracellular cytokine staining, brefeldin A (Golgiplug, BD Biosciences) was added 4 h before harvesting the cells, which were fixed with 1% paraformaldehyde and permeabilized with 0.1% saponin (Sigma-Aldrich) prior to mAb staining. Experiments with blocking antibodies were performed with 10 µg/mL of preservative-free mAbs, including isotype matched control, anti-IL-2, anti-IL-12, anti-IFNγ and anti-CD40L (all from BD Biosciences) or anti-IL-18 (MBL). For detection of CD40L expression by iNKT cells, co-cultures of iNKT and PBMC were prepared as above, except that monensin (Golgistop, BD Biosciences) and fluorescent CD40L specific mAb (1/10 or 1/20 final dilution) were added at the beginning of the experiment, as previously described.
Figure 6 A novel in vitro “transactivation assay” to assess the ability of human iNKT cells to activate other leukocytes. (A) Format for analysis of transactivation of bystander leukocytes. Flow cytometric analysis was carried out for culture containing iNKT cells co-cultured for 24 hours with fresh human PBMC at a 1/10 ratio. For the intracellular detection of IFNγ, Brefeldin A was added for the last 4 hours. Representative electronic gating is shown for the discrimination of CFSE-labeled iNKT cells, B cells, T cells, and NK cells to measure IFNγ expression (or CD69 expression, not shown). Filled black histograms show staining with vehicle control and are overlaid with open gray histograms for stimulation with 100 nM of KRN7000. (B) Dose-dependent IFNγ and CD40L expression by iNKT cells (top and middle graph, respectively) and IFNγ production by transactivated NK cells (bottom graph), after 24 h of co-culture of CFSE-labeled iNKT cells and PBMCs at a 1/10 ratios and the indicated concentration of either KRN7000 (black filled circles) or the adamantanoyl (AD) analog (open circles). Data are presented for a CD4^+ clone (HDD3), and similar results (not shown) were obtained with a DN clone (HDE3). (C) Effect of specific blockade of various cytokines and CD40L on the activation of iNKT cells and transactivated NK cells. CFSE-labeled iNKT cells and PBMCs were co-cultured at a 1/40 ratio for the indicated time, in the presence of KRN7000 at 25 nM and 10 µg/mL of isotype matched control or specific blocking antibodies as indicated. Average percentages of IFNγ^+ iNKT cells and NK cells, assessed by intracellular staining at 24, 48 and 66 hours, are indicated in the left and right plots, respectively.
Figure 7 Comparison of αGalCer analogs for their ability to induce NK cell transactivation. (A) iNKT cell clones were co-cultured for 24 hours with fresh human PBMC at a 1/10 ratio with 100 nM of the indicated analogs, and Brefeldin A was added for the last 4 hours. The percentages of IFNγ^+ iNKT cells (open bars) and IFNγ^+ NK cells (filled bars) are indicated. Cytokine levels were assessed by ELISA in supernatants from identical conditions in absence of Brefeldin A treatment: (B) IFNγ levels (open bars) and IL-13 levels (filled bars); the detection limit was 82.3 ng/mL for both cytokines. (C) IL-12 levels (open bars) and IL-18 levels (filled bars); the detection limit was 27.4 ng/mL. Results obtained with a CD4^+ clone (HDD3) are presented, and similar data (not shown) were obtained with a DN clone (HDE3).

Row | SMILES | iNKT cell frequencies with loaded tetramers versus staining with Vα24Jα18 specific Ab 6B11 [1] | IL-12 levels in supernatants ([2]; 100 nM) | IL-13 levels in supernatants ([2]; 100 nM) | IL-18 levels in supernatants ([2]; 100 nM) | global IFNγ production in supernatants ([2]; 100 nM) | IFNγ production in bystander leukocytes (intracellular staining) ([2]; 100 nM, iNKT/PBMC 1/10) | CD69 induction in bystander leukocytes upon iNKT cell stimulation ([2]; not shown)
1 | CCCCC/C=C\C/C=C\CCCCCCCCCC(=O)N[C@@H](CO[C@H]1O[C@H](CO)[C@H](O)[C@H](O)[C@H]1O)[C@H](O)[C@H](O)CCCCCCCCCCCCCC [C20:2] | Comparable iNKT cell frequencies | detectable IL-12 generation | high IL-13 levels | enhanced IL-18 levels compared to vehicle control | high global production of IFNγ |  | 
2 | CCCCC/C=C\C/C=C\C/C=C\C/C=C\CCCC(=O)N[C@@H](CO[C@H]1O[C@H](CO)[C@H](O)[C@H](O)[C@H]1O)[C@H](O)[C@H](O)CCCCCCCCCCCCCC [C20:4] | Comparable iNKT cell frequencies | detectable IL-12 generation | high IL-13 levels | enhanced IL-18 levels compared to vehicle control | high global production of IFNγ |  | 
3 | CCCCCCCCCCCCCCCCCCCCCCCCCC(=O)N[C@@H](CO[C@H]1O[C@H](CO)[C@H](O)[C@H](O)[C@H]1O)[C@H](O)[C@H](O)CCCCCCCCCCCCCC [KRN7000, reference compound] | Comparable iNKT cell frequencies |  |  |  |  | detectable at 24 h in NK cells, but not in T cells or B cells | nearly all B cells and NK cells, but not T cells, became CD69^+
